Assay in all cases: inhibition of tumour cell growth, NCI panel, 48 h
In test [1] the test system is HCC-2998 colon.
For test [2], the system named is MOLT-4 leukemia.
Test [3] concerns HOP-18 NSCLC.
Test [4] relates to U251 CNS.
Test [5] concerns HOP-92 NSCLC.
The subject of test [6] is HL-60(TB) leukemia.
For test [7], the system named is ACHN renal.
Test [8] has as its system SF-539 CNS.
For test [9], the system named is NCI-H522 lung.
Test [10] concerns NCI-H226 lung.

Each structure is given as a SMILES string. Several values for one entry are separate records, joined by “and”; a condition that tells them apart may be missing. Identical values can stand only once.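 A five-concentration, 48-hour dose response in 96-well plates underlies each endpoint, interpolated linearly between surrounding concentrations. GI50: concentration for 50% inhibition of growth. TGI denotes the concentration required for complete inhibition of growth.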

For `CC(=O)Oc1cc(OC(C)=O)c2cc3c(cc2c1OC(C)=O)C(=O)C1(CCCC1)C3=O`, the TGI is 37.2 µM in [1]; 15 µM in [2]; 38.5 µM in [3]; 32.3 µM in [4]; 28.6 µM in test [5]; 73.6 µM in [6]. Moreover, the TGI in test [7] stood at 31.5 µM.
For the compound `O/N=C1/C(=C/c2ccc(Cl)cc2)CCCC1C(NO)c1ccc(Cl)cc1` (stereo unspecified), the TGI in [1] turned out to be 47.4 µM; in test [2] it was 37.2 µM; in [3] it was 55.1 µM; in test [8], 88.1 µM; in test [4] it was 50.8 µM; in [6], 43.3 µM. The TGI in [7] was over 100 µM; in [9], 62.8 µM.
In the case of `CCCCCCCCCCC(CN(CC)CC)C(O)c1ccccc1` (stereo unspecified), the GI50 in test [1] is 1.81 µM; in test [2], 2.25 µM; in test [8], 1.72 µM; in test [4], 1.86 µM; in [5], 1.27 µM; in test [6], 2.13 µM. Also, the figures for the GI50 in test [10], in test [7] and in test [9] were 2.03 µM, 1.61 µM and 1.83 µM, respectively. For the same compound, the TGI in test [1] was determined as 3.39 µM; in [2], 5.8 µM; in test [8], 3.3 µM; in test [4], 3.56 µM; in test [5], 2.98 µM; in test [6] it was 5.04 µM. The TGI stood at 4.66 µM in [10], 3.07 µM in [7] and 3.8 µM in test [9].
`NC(=O)C12CCC1C1CCCCC12N1CCOCC1` (stereo unspecified): the TGI in [1], in test [2], in test [3], in test [8], in [4] and in test [5] was over 100 µM throughout. Also, the TGI in [6], in [7] and in test [9] was over 100 µM throughout.
For `O=C(Nc1ccc([N+](=O)[O-])cc1)c1cc2ccccc2cc1O`, the GI50 in [1] was 1.25 µM; in test [2], 0.675 µM; in test [8], 0.388 µM; in test [4] it was 0.36 µM; in test [5], 0.172 µM; in [6], 0.235 µM. The values for the GI50 in [10], in [7] and in test [9] were 0.503 µM, 0.38 µM and 0.268 µM, respectively. Moreover, the TGI was 4.8 µM in test [1]; over 21.1 µM in test [2]; 4.94 µM in test [8]; 13.1 µM in test [4]; 0.557 µM in test [5]; 0.909 µM in test [6]. The TGI in test [10] is 5.37 µM; in [7], 16.8 µM; in [9], 1.61 µM.
As to `C[C@@H]1CCC2[C@@H](C)[C@H](OC(=O)CCC(=O)NCCNC(=O)Cc3cc(=O)oc4cc(N(C)C)ccc34)O[C@@H]3O[C@]4(C)CC[C@@H]1C23OO4` (stereo partly specified), the GI50 in test [1] was 6.85 µM; in test [2], 1.75 µM; in test [8] it was 3.22 µM; in test [4], 1.33 µM; in test [5], 2.6 µM; in test [6], 0.301 µM. Further, the GI50 in test [10] is 7.81 µM; in test [7] it was 2.96 µM; in test [9], 0.731 µM. Further, the TGI was over 100 µM in [1]; 37.9 µM in test [2]; 24.3 µM in [8]; 19.1 µM in [4]; 16.9 µM in [5]; 6.77 µM in test [6]. For the same compound, the values for the TGI in [10], in test [7] and in test [9] were 35.2 µM, 17.1 µM and 11.1 µM, respectively.
Regarding `CCCCCC/C=C/CCCCCCCc1cccc(O)c1C(=O)O`, the TGI in [2] is over 100 µM; in test [3] it was over 100 µM; in test [8], over 100 µM; in test [4] it was 88.2 µM; in test [6], over 100 µM; in test [7], over 100 µM. This compound also gave a TGI in test [9] of over 100 µM.
On to `O=C1/C(=C/c2ccc(C(F)(F)F)cc2)COc2ccc(O)cc21`, for which the GI50 is 1.57 µM in [1]; 2.33 µM in test [2]; 1.68 µM in test [8]; 1.66 µM in test [4]; 11.8 µM in [5]; 1.27 µM in test [6]. The GI50 in test [10] was 2.53 µM; in test [7] it was 1.84 µM; in test [9] it was 1.59 µM. The TGI in [1] came out at 2.93 µM; in [2] it was 21.2 µM; in test [8] it was 3.3 µM; in test [4], 3.06 µM; in [5], 24.7 µM; in [6], 4.35 µM. Also, the TGI in test [10] turned out to be 8.21 µM; in test [7] it was 3.53 µM; in test [9], 3.69 µM.
For the compound `O=C(Nn1c2c(sc1=NC1CC1)C(=O)c1ccccc1C2=O)c1cc2ccc1CCc1ccc(cc1)CC2`, the GI50 in test [1] was 2.34 µM; in test [2], 2.22 µM; in [8], 1.67 µM; in test [4], 2.41 µM; in test [5] it was 2.26 µM; in test [6], 2.18 µM. In addition, the GI50 in test [10] was 1.81 µM; in test [7], 1.39 µM; in [9], 1.6 µM. Moreover, the TGI in test [1] is 6.67 µM; in test [2] it was 8.89 µM; in test [8], 3.06 µM; in [4], 11.1 µM; in test [5], 14.4 µM; in test [6], 6.26 µM. Also, the TGI in test [10] came out at 5.83 µM; in test [7] it was 3.03 µM; in test [9] it was 4.69 µM.
Take `CN1CCN(c2ccc([N+](=O)[O-])c3no[n+]([O-])c23)CC1`: the GI50 in test [1] was 1.32 µM; in test [2], 0.0645 µM; in test [8], 0.246 µM; in [4], 0.189 µM; in test [5] it was 0.188 µM; in [6], 0.0322 µM. Further, the GI50 in test [10] is 0.697 µM; in [7], 0.158 µM; in test [9] it was 0.115 µM. Further, the TGI was 2.73 µM in test [1]; 0.722 µM and 0.733 µM in test [8]; 1.41 µM and 0.618 µM in test [4]; 1.2 µM in test [5]; 0.157 µM and 0.155 µM in [6]; 3.39 µM and 2.16 µM in test [10]. The TGI in [7] is 0.787 µM and 0.954 µM; in test [9], 0.507 µM and 0.26 µM.
Take `Cc1cc(S(=O)(=O)Nc2nc3ccsc3c(=O)n2Cc2ccccc2)c(S)cc1Cl`: the GI50 is 24 µM in [1]; 37.9 µM in [2]; 28.1 µM in test [8]; 35.9 µM in test [4]; 87.6 µM in test [5]; over 100 µM in [6]. Also, the GI50 was 34.5 µM in test [10], 57.5 µM in [7] and 37 µM in test [9]. The TGI was 43.7 µM in [1]; over 100 µM in test [2]; 70.3 µM in [8]; over 100 µM in test [4]; over 100 µM in test [5]; over 100 µM in test [6]. Moreover, the TGI was 93.6 µM in test [10], over 100 µM in test [7] and over 100 µM in [9].
As to `CO[C@H]1/C=C/C[C@H](C)[C@@H](C)S(=O)(=O)NC(=O)c2ccc3c(c2)N(C[C@@H]2CC[C@H]21)C[C@@]1(CCCc2cc(Cl)ccc21)CO3`, the GI50 was 1.65 µM in [1]; 1.73 µM in test [2]; 1.85 µM in [8]; 2.47 µM in test [4]; 1.55 µM in test [5]; 0.246 µM in test [6]. In addition, the GI50 in [10] is 2.66 µM; in test [7] it was 3.39 µM; in test [9] it was 1.39 µM. In addition, the TGI in test [1] was 3.45 µM; in [2] it was 8.8 µM; in test [8], 4.55 µM; in test [4] it was 6.86 µM; in test [5], 3.4 µM; in test [6], 0.655 µM. The TGI came to 7.4 µM in [10], 11.8 µM in test [7] and 3.3 µM in test [9].
Turning to `CCOC(CN(C)C(=O)OCC(Cl)(Cl)Cl)OCC`, the TGI is over 100 µM in test [1]; over 100 µM in [2]; over 100 µM in [8]; over 100 µM in test [4]; over 100 µM in test [5]; 59.1 µM in [6]. For the same compound, the TGI in test [10], in test [7] and in test [9] was over 100 µM each time.
Regarding `CC(C)(C)n1cc(-c2ccnc(NCCCNS(=O)(=O)c3ccc(Cl)cc3)c2)c(-c2cccc(O)c2)n1`, the GI50 in test [1] was 1.76 µM; in test [2], 1.91 µM; in test [8] it was 1.65 µM; in test [4], 1.62 µM; in test [5], 1.49 µM; in test [6], 2.51 µM. In addition, the figures for the GI50 in test [10], in test [7] and in [9] were 2.11 µM, 1.97 µM and 1.92 µM, respectively. The TGI in test [1] worked out at 3.24 µM; in test [2], 5.64 µM; in test [8], 3.14 µM; in test [4], 3.42 µM; in test [5], 3.33 µM; in test [6], 6.37 µM. Also, the TGI in test [10] worked out at 5.04 µM; in test [7], 4.48 µM; in test [9], 3.91 µM.

Values taken from PubChem BioAssay (NCI).
